# Reference: patent US7226925B2, “Compounds, their use and preparation” (Biovitrum AB, priority 2002, dated 2007)
# Counter-ions that a name gives are not always drawn.
# Columns and labels:
# human 5-HT1A receptor = target: T1, human 5-HT1A receptor (Homo sapiens, UniProt P08908); test: Affinity assay, displacement of 3H-8-OH-DPAT, CHO cell line; type: binding; conditions: 3H-8-OH-DPAT radioligand, CHO cells
# T1 construct: expressed in transfected cells; host or cells: CHO cell line
# T1 sequence (P08908 1-422): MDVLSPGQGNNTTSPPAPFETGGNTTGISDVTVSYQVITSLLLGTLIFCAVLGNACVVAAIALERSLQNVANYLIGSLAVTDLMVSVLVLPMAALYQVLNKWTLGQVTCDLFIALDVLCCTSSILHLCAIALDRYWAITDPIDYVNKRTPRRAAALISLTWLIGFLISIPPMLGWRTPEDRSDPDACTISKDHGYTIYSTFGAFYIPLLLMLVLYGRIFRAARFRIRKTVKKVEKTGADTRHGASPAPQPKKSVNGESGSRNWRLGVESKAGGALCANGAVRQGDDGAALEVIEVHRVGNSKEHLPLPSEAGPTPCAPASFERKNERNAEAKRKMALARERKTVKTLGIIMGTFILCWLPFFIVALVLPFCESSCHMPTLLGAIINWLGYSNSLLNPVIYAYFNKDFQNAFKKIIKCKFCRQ
# Method: (§1) The binding affinities of the compounds for the human 5-HT2A and 5-HT2B receptors in CHO cell lines were determined using ^3H-labelled lysergic acid diethyl amide (LSD) and 5-HT, respectively, as radioligands. The binding affinities of the compounds for the human 5-HT1A and 5-HT1B receptors in CHO cell lines were determined similarly using ^3H-labelled 8-hydroxy-2-(di-n-propylamino)tetralin (8-OH-DPAT) and 5-HT, respectively, as radioligands.
# human 5-HT2C receptor [1] = target: T2, human 5-HT2C receptor (Homo sapiens, UniProt P28335); test: In vitro functional assay, intracellular calcium mobilisation in transfected HEK293 cells (FLUO-3); type: cell-based; conditions: for EC50: calcium mobilisation, HEK293 cells; for Efficacy 5-HT2C: maximum response at 1 μM relative to maximum response of 5-HT at 1 μM
# T2 construct: expressed in transfected cells
# T2 sequence (P28335 33-458): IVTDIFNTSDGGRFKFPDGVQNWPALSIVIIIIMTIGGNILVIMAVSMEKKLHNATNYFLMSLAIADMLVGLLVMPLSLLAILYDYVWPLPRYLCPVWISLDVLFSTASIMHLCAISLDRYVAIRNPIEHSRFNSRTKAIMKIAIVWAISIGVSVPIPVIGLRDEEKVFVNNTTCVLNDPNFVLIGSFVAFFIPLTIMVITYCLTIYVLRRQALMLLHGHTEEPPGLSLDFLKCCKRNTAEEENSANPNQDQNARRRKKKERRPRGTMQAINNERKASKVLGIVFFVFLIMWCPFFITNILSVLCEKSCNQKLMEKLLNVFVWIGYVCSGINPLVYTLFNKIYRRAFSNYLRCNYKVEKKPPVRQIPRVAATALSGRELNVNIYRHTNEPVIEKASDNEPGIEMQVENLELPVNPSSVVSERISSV
# Method: The agonist efficacy at the 5-HT2C receptor of the compounds in the Examples was determined by the ability of each compound to mobilise intracellular calcium in transfected HEK293 cells, stably expressing the human 5-HT2C receptor protein, using the calcium-chelating fluorescent dye FLUO-3 (Sigma, St. Louis, Mo., U.S.A.).
# human 5-HT2B receptor [2] = target: T3, human 5-HT2B receptor (Homo sapiens, UniProt P41595); test: Affinity assay, displacement of 3H-5-HT, CHO cell line; type: binding; conditions: 3H-5-HT radioligand, CHO cells
# T3 construct: expressed in transfected cells; host or cells: CHO cells
# Method: as §1
# human 5-HT1B receptor = target: T4, human 5-HT1B receptor (Homo sapiens, UniProt P28222); test: as above; type: binding; conditions: 3H-5-HT radioligand, CHO cells
# T4 construct: expressed in transfected cells; host or cells: CHO cell line
# Method: as §1
# human 5-HT2A receptor [3] = target: T5, human 5-HT2A receptor (Homo sapiens, UniProt P28223); test: Affinity assay, displacement of 3H-LSD, CHO cell line; type: binding; conditions: 3H-LSD radioligand, CHO cells
# T5 construct: expressed in transfected cells; host or cells: CHO cells
# Method: as §1
# human 5-HT2C receptor [4] = target: T2, human 5-HT2C receptor; test: Affinity assay, displacement of 3H-5-HT, membranes of transfected HEK293 cells, Scintillation Proximity Assay; type: binding; conditions: 3H-5-HT radioligand
# Method: The receptor affinity of compounds in the Examples was determined in competition experiments, where the ability of each compound in serial dilution to displace ^3H-labelled 5-HT, bound to membranes prepared from a transfected HEK293 cell line stably expressing the human 5-HT2C receptor protein, was monitored by Scintillation Proximity Assay technology. Non-specific binding was defined using 5 μM mianserin.
# human 5-HT2B receptor [5] = target: T3, human 5-HT2B receptor; test: In vitro functional assay, intracellular calcium mobilisation in CHO cells; type: cell-based; conditions: for EC50: calcium mobilisation, CHO cells; for Efficacy 5-HT2B: maximum response at 1 μM relative to maximum response of 5-HT at 1 μM
# Method: (§2) The ability of the compounds to mobilise intracellular calcium at the 5HT2A and 5-HT2B receptors was determined similarly using CHO cells expressing the human 5-HT2A or human 5-HT2B receptors.
# (§3) The maximum functional responses of the compounds, at 1 μM, at the 5-HT2A, 5-HT2B and 5-HT2C receptors are expressed relative to the maximum response of 5-HT (serotonin) at a concentration of 1 μM.
# human 5-HT2A receptor [6] = target: T5, human 5-HT2A receptor; test: as above; type: cell-based; conditions: for EC50: calcium mobilisation, CHO cells; for Efficacy 5-HT2A: maximum response at 1 μM relative to maximum response of 5-HT at 1 μM
# Method: as §2, §3
# T5 sequence (P28223 whole entry): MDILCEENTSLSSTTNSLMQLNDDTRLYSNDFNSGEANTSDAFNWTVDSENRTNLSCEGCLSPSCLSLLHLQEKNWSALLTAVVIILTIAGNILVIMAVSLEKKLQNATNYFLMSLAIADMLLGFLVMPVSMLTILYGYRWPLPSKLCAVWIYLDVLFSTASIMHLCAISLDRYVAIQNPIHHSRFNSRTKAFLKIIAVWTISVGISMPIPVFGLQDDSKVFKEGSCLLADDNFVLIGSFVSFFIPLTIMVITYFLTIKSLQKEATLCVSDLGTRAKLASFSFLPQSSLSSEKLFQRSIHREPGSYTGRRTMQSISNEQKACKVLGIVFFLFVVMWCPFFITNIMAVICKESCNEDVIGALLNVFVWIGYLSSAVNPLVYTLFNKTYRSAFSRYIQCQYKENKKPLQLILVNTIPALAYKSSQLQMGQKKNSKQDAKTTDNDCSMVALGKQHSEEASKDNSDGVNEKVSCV
# T3 sequence (P41595 whole entry): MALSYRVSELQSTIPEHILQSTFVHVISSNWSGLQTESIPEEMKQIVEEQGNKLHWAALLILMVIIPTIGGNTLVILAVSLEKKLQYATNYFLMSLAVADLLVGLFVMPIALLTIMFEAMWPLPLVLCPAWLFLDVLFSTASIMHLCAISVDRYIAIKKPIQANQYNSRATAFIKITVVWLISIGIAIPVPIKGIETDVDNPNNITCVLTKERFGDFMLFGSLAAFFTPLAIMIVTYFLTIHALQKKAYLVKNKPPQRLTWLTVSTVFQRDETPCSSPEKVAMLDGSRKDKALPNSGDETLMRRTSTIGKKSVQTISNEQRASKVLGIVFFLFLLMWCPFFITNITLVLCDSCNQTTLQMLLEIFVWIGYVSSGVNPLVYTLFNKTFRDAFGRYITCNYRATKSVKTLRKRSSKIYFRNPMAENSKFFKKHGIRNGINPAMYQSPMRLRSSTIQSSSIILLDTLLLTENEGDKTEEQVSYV
# T4 sequence (P28222 whole entry): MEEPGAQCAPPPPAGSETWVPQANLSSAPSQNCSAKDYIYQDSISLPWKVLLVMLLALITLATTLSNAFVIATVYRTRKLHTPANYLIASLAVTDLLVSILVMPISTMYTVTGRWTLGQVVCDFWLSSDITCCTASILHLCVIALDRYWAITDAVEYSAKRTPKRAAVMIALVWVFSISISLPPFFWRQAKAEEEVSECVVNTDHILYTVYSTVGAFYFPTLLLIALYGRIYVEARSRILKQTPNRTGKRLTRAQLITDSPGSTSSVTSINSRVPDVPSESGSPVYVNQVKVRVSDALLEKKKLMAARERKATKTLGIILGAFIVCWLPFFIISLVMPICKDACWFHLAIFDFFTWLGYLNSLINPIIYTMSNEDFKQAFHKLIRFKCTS
SMILES,Ki (human 5-HT1A receptor) [nM],EC50 (human 5-HT2C receptor [1]) [nM],Efficacy 5-HT2C (human 5-HT2C receptor [1]) [%],Ki (human 5-HT2B receptor [2]) [nM],Ki (human 5-HT1B receptor) [nM],Ki (human 5-HT2A receptor [3]) [nM],Ki (human 5-HT2C receptor [4]) [nM],EC50 (human 5-HT2B receptor [5]) [nM],Efficacy 5-HT2B (human 5-HT2B receptor [5]) [%],EC50 (human 5-HT2A receptor [6]) [nM],Efficacy 5-HT2A (human 5-HT2A receptor [6]) [%],melting point [°C]
"C[C@@H]1CNCCN1c1nccnc1OCCOc1cccnc1OCCN(C)C [Example 1, N,N-Dimethyl-(2-(3-[2-(2-(R)-methyl-3,4,5,6-tetrahydro-2H-[1,2′]bipyrazinyl-3′-yloxy)-ethoxy]-pyridin-2-yloxy)-ethyl)-amine]",800,4.2,117,> 1000,> 1000,> 1000,12,1940,16,1200,14,
"CC(C)N(CCOc1ncccc1OCCOc1nccnc1N1CCNC[C@H]1C)C(C)C (as salt: acetate) [Example 2, N,N-Diisopropyl-(2-(3-[2-(2-(R)-methyl-3,4,5,6-tetrahydro-2H-[1,2′]bipyrazinyl-3′-yloxy)-ethoxy]-pyridin-2-yloxy)-ethyl)-amine]",,,,,,,,,,,,87
"C[C@@H]1CNCCN1c1nccnc1OCCOc1cccnc1OCCN(C)C (as salt: acetate) [Example 1, N,N-Dimethyl-(2-(3-[2-(2-(R)-methyl-3,4,5,6-tetrahydro-2H-[1,2′]bipyrazinyl-3′-yloxy)-ethoxy]-pyridin-2-yloxy)-ethyl)-amine]",,,,,,,,,,,,75
"CC(C)N(CCOc1ncccc1OCCOc1nccnc1N1CCNC[C@H]1C)C(C)C [Example 2, N,N-Diisopropyl-(2-(3-[2-(2-(R)-methyl-3,4,5,6-tetrahydro-2H-[1,2′]bipyrazinyl-3′-yloxy)-ethoxy]-pyridin-2-yloxy)-ethyl)-amine]",380,3.9,111,> 1000,200,> 1000,10,900,33,260,40,
